# Organism: Rattus norvegicus
# Test: Open TG-GATES - Regimen: Daily Repeat
# Assay type: toxicity, organism-based, Sprague-Dawley
# Set-up: regimen Daily Repeat, gender Male, age 6 weeks
# Conditions: in vivo, po, 1000 mg/kg, route gavage, dose level High; for APTT / Bas / Eos / Fbg / Hb / Ht / Lym / MCH / MCHC / MCV / Mono / Neu / PT / Plat / RBC / Ret / WBC: tissue Blood
# [1] = 72 h, tissue Kidney, time 3 day
# [2] = 72 h, tissue Plasma, time 3 day
compound,measurement,setting,value
NC(N)=Nc1nc(CSCCC(N)=NS(N)(=O)=O)cs1 [FAMOTIDINE],TERMINAL_BW,"72 h, time 3 day",226 g
same,APTT,"72 h, time 3 day",19.5 s
same,Bas,"72 h, time 3 day",0%
same,Eos,"72 h, time 3 day",1%
same,Fbg,"72 h, time 3 day",226.2 mg/dL
same,Hb,"72 h, time 3 day",13.2 g/dL
same,Ht,"72 h, time 3 day",36.9%
same,Lym,"72 h, time 3 day",79%
same,MCH,"72 h, time 3 day",21.9 pg
same,MCHC,"72 h, time 3 day",36%
same,MCV,"72 h, time 3 day",60.8 fL
same,Mono,"72 h, time 3 day",2.6%
same,Neu,"72 h, time 3 day",14.4%
same,PT,"72 h, time 3 day",11.9 s
same,Plat,"72 h, time 3 day",126.7 x10_4/uL
same,RBC,"72 h, time 3 day",607 x10_4/ul
same,Ret,"72 h, time 3 day",4.4%
same,WBC,"72 h, time 3 day",84.8 x10_2/uL
same,KIDNEY_L,[1],1 g
same,KIDNEY_R,[1],1 g
same,KIDNEY_TOTAL,[1],2 g
same,LIVER,"72 h, tissue Liver, time 3 day",10.4 g
same,A/G,[2],1.5
same,ALP,[2],917.2 IU/L
same,ALT,[2],32.8 IU/L
same,AST,[2],60.4 IU/L
same,BUN,[2],15.4 mg/dL
same,CRE,[2],0.4 mg/dL
same,Ca,[2],10.8 mg/dL
same,Cl,[2],104.2 meq/L
same,DBIL,[2],0.088 mg/dL
same,GLC,[2],179.4 mg/dL
same,IP,[2],7.7 mg/dL
same,LDH,[2],185.8 IU/L
same,Na,[2],141.2 meq/L
same,PL,[2],137.8 mg/dL
same,RALB,[2],3.3 g/dL
same,TBIL,[2],0.1 mg/dL
same,TC,[2],77.6 mg/dL
same,TG,[2],79.6 mg/dL
same,TP,[2],5.5 g/dL
same,gamma-GTP,[2],1 IU/L
same,TERMINAL_BW,"[…], time 7 day",262.1 g
same,TERMINAL_BW,"[…], time 14 day",322.6 g
same,TERMINAL_BW,"[…], time 28 day",376.8 g
same,APTT,"[…], time 7 day",21.5 s
same,Bas,"[…], time 7 day",0%
same,Eos,"[…], time 7 day",1.2%
same,Fbg,"[…], time 7 day",223.4 mg/dL
same,Hb,"[…], time 7 day",13.6 g/dL
same,Ht,"[…], time 7 day",38.2%
same,Lym,"[…], time 7 day",75%
same,MCH,"[…], time 7 day",21.5 pg
same,MCHC,"[…], time 7 day",35.5%
same,MCV,"[…], time 7 day",60.3 fL
same,Mono,"[…], time 7 day",2.8%
same,Neu,"[…], time 7 day",19.6%
same,PT,"[…], time 7 day",12.1 s
same,Plat,"[…], time 7 day",122.6 x10_4/uL
same,RBC,"[…], time 7 day",634.4 x10_4/ul
same,Ret,"[…], time 7 day",5.5%
same,WBC,"[…], time 7 day",107.5 x10_2/uL
same,APTT,"[…], time 14 day",23.4 s
same,Bas,"[…], time 14 day",0%
same,Eos,"[…], time 14 day",0.8%
same,Fbg,"[…], time 14 day",228 mg/dL
same,Hb,"[…], time 14 day",13.9 g/dL
same,Ht,"[…], time 14 day",40.7%
same,Lym,"[…], time 14 day",76.8%
same,MCH,"[…], time 14 day",21.2 pg
same,MCHC,"[…], time 14 day",34.2%
same,MCV,"[…], time 14 day",62 fL
same,Mono,"[…], time 14 day",2.2%
same,Neu,"[…], time 14 day",18.6%
same,PT,"[…], time 14 day",12.5 s
same,Plat,"[…], time 14 day",117.7 x10_4/uL
same,RBC,"[…], time 14 day",656.2 x10_4/ul
same,Ret,"[…], time 14 day",4.8%
same,WBC,"[…], time 14 day",111.7 x10_2/uL
same,APTT,"[…], time 28 day",21.5 s
same,Bas,"[…], time 28 day",0%
same,Eos,"[…], time 28 day",1.2%
same,Fbg,"[…], time 28 day",222.2 mg/dL
same,Hb,"[…], time 28 day",15.7 g/dL
